Assay results taken from patent US20220089578A1, “COMPOUNDS AS GLP-1R AGONISTS” (Terns Pharmaceuticals, Inc., priority 2020, published 2022).

What follows are molecules tested against human GLP-1R (Homo sapiens, UniProt P43220) (assay: GLP-1R Cell Assay 1: cAMP Hunter CHO-K1 GLP1R Gs cell line, HitHunter cAMP assay). Conditions: Table 2; cAMP Hunter CHO-K1 GLP1R Gs cells; percent activity normalized to Exendin-4.
Assay type: cell-based
Method: GLP-1R mediated agonist activity was determined using the cAMP Hunter CHO-K1 GLP1R Gs cell line (DiscoverX, cat# 95-0062C2), a stable CHO-K1 derived cell lines overexpressing naturally Gs coupled wild-type human GLP-1R (accession number: NM_002062.3). GLP-1R agonism in this cell line was detected by measuring cellular cAMP levels using the HitHunter cAMP assay kit (cat# 90-0075SM2), a homogenous, gain-of-signal competitive immune assay based on Enzyme Fragment Complementation (EFC) technology. In this system cellular cAMP competes with exogenous labeled cAMP (ED-cAMP) for binding to an anti-cAMP antibody. […] The luminescent signal is directly proportional to the amount of cellular cAMP.
For compound testing, cells were seeded in a total volume of 20 μL in white walled, 384-well microplates and incubated at 37° C. prior to compound testing. Prior to compound addition, cell culture media was removed by aspiration and replaced with 15 pt reagent buffer (2:1 HBSS/10 mM HEPES: cAMP XS+Ab reagent). Compounds were dissolved in DSMO and serially diluted (3-fold) prior to final dilution to 4X in assay buffer. Samples (5 μL) were added to cells and incubated at 37° C. for […] prior to 1 hour incubation with 20 pt cAMP XS+ED/CL lysis reagent and 3 hour incubation with 20 μL cAMP XS+EA reagent at room temperature. Microplates were read on a PerkinElmer Envision instrument. Compound activity was analyzed using CBIS data analysis suite (ChemInnovation). Percent activity was calculated based on duplicate assay runs and normalized to the positive control Exendin-4, a GLP-1R peptide agonist, using the following formula: […]
The effective compound concentration resulting in 50% response (EC50) was determined by non-linear regression analysis of dose-response curves.

human GLP-1R, sequence (P43220 24-463): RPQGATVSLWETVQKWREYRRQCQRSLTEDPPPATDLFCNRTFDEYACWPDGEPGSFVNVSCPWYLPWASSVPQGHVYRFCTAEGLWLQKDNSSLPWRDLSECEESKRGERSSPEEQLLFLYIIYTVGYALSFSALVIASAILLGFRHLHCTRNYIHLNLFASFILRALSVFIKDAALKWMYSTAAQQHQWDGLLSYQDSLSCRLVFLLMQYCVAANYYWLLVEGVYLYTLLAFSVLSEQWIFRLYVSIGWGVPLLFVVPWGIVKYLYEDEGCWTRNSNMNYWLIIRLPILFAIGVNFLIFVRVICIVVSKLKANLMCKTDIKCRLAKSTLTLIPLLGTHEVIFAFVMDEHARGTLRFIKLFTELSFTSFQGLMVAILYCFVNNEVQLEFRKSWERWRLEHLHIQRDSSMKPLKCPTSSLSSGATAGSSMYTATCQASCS

EC50	SMILES
248 nM	N#Cc1ccc(COc2cccc(C3CCN([C@@H]4CCn5c4nc4ccc(C(=O)O)cc45)CC3)n2)c(F)c1 (single isomer, unassigned) [Compound 6-P1]
> 500 nM	N#Cc1ccc(COc2cccc(C3CCN([C@H]4CCn5c4nc4ccc(C(=O)O)cc45)CC3)n2)c(F)c1 (single isomer, unassigned) [Compound 6-P2]
5.19 nM	N#Cc1ccc(COc2cccc(C3CCN([C@H]4COCCn5c4nc4ccc(C(=O)O)cc45)CC3)n2)c(F)c1 (single isomer, unassigned) [Compound 7-P1]
> 500 nM	N#Cc1ccc(COc2cccc(C3CCN([C@@H]4COCCn5c4nc4ccc(C(=O)O)cc45)CC3)n2)c(F)c1 (single isomer, unassigned) [Compound 7-P2]
> 500 nM	C[C@H]1COC[C@H](N2CCC(c3cccc(OCc4ccc(C#N)cc4F)n3)CC2)c2nc3ccc(C(=O)O)cc3n21 (single isomer, unassigned) [Compound 8-P1]
82.1 nM	C[C@H]1COC[C@@H](N2CCC(c3cccc(OCc4ccc(C#N)cc4F)n3)CC2)c2nc3ccc(C(=O)O)cc3n21 (single isomer, unassigned) [Compound 8-P2]
> 500 nM	C[C@@]1(c2cccc(OCc3ccc(C#N)cc3F)n2)CCN(Cc2nc3ccc(C(=O)O)cc3n2C[C@@H]2CCO2)C1 (single isomer, unassigned) [Compound 20-P1]
166 nM	C[C@]1(c2cccc(OCc3ccc(C#N)cc3F)n2)CCN(Cc2nc3ccc(C(=O)O)cc3n2C[C@@H]2CCO2)C1 (single isomer, unassigned) [Compound 20-P2]
> 500 nM	O=C(O)c1ccc2nc(CN3CCC(n4nccc4COc4ccccc4)CC3)n(C[C@@H]3CCO3)c2c1 (single isomer, unassigned) [Compound 26-P2]
0.174 nM	O=C(O)c1ccc2nc(CN3CC[C@@]4(c5cccc(OCc6ccc(Cl)cc6Cl)n5)C[C@H]4C3)n(C[C@@H]3CCO3)c2c1 (single isomer, unassigned) [Compound 126-P1]
0.373 nM	O=C(O)c1ccc2nc(CN3CC[C@]4(c5cccc(OCc6ccc(Cl)cc6Cl)n5)C[C@@H]4C3)n(C[C@@H]3CCO3)c2c1 (single isomer, unassigned) [Compound 126-P2]
0.571 nM	N#Cc1ccc(COc2cccc(N3CCN(Cc4nc5ccc(C(=O)O)cc5n4C[C@@H]4CCS4(=O)=O)CC3)n2)c(F)c1 (single isomer, unassigned) [Compound 140-P1]
0.17 nM	N#Cc1ccc(COc2cccc(N3CCN(Cc4nc5ccc(C(=O)O)cc5n4CC4CCS4(=O)=O)CC3)n2)c(F)c1 (single isomer, unassigned) [Compound 140-P2]
42.5 nM	O=C(O)c1ccc2nc(CN3CCN(c4cccc(OCC5CCCCC5)n4)CC3)n(C[C@@H]3CCO3)c2c1 [Compound 1, (S)-2-((4-(6-(cyclohexylmethoxy)pyridin-2-yl)piperazin-1-yl)methyl)-1-(oxetan-2-ylmethyl)-1H-benzo[d]imidazole-6-carboxylic acid]
> 500 nM	N#Cc1ccc2c(c1)CCN(c1cccc(N3CCN(Cc4nc5ccc(C(=O)O)cc5n4C[C@@H]4CCO4)CC3)n1)CC2 [Compound 2, (S)-2-((4-(6-(7-cyano-4,5-dihydro-1H-benzo[d]azepin-3(2H)-yl)pyridin-2-yl)piperazin-1-yl)methyl)-1-(oxetan-2-ylmethyl)-1H-benzo[d]imidazole-6-carboxylic acid]
9.05 nM	Cn1cnc2cc(COc3cccc(N4CCN(Cc5nc6ccc(C(=O)O)cc6n5C[C@@H]5CCO5)CC4)n3)ccc21 [Compound 3, (S)-2-((4-(6-((1-methyl-1H-benzo[d]imidazol-5-yl)methoxy)pyridin-2-yl)piperazin-1-yl)methyl)-1-(oxetan-2-ylmethyl)-1H-benzo[d]imidazole-6-carboxylic acid]
4.58 nM	N#Cc1cc(F)c2c(c1)CCC(c1cccc(N3CCN(Cc4nc5ccc(C(=O)O)cc5n4C[C@@H]4CCO4)CC3)n1)C2 (stereo partly drawn) [Compound 4, 2-((4-(6-(6-cyano-8-fluoro-1,2,3,4-tetrahydronaphthalen-2-yl)pyridin-2-yl)piperazin-1-yl)methyl)-1-((S)-oxetan-2-ylmethyl)-1H-benzo[d]imidazole-6-carboxylic acid]
315 nM	N#Cc1cccc2c1CCCN2c1cccc(N2CCN(Cc3nc4ccc(C(=O)O)cc4n3C[C@@H]3CCO3)CC2)n1 [Compound 5, (S)-2-((4-(6-(5-cyano-3,4-dihydroquinolin-1(2H)-yl)pyridin-2-yl)piperazin-1-yl)methyl)-1-(oxetan-2-ylmethyl)-1H-benzo[d]imidazole-6-carboxylic acid]
124 nM	O=C(O)c1ccc2nc(CN3CCC(c4cccc(C5CCc6ccccc6C5)n4)CC3)n(C[C@@H]3CCO3)c2c1 (stereo partly drawn) [Compound 12, 1-((S)-oxetan-2-ylmethyl)-2-((4-(6-(1,2,3,4-tetrahydronaphthalen-2-yl)pyridin-2-yl)piperidin-1-yl)methyl)-1H-benzo[d]imidazole-6-carboxylic acid]
0.788 nM	N#Cc1cc(F)c2c(c1)CCN(c1cccc(C3CCN(Cc4nc5ccc(C(=O)O)cc5n4C[C@@H]4CCO4)CC3)n1)C2 [Compound 13, (S)-2-((4-(6-(6-cyano-8-fluoro-3,4-dihydroisoquinolin-2(1H)-yl)pyridin-2-yl)piperidin-1-yl)methyl)-1-(oxetan-2-ylmethyl)-1H-benzo[d]imidazole-6-carboxylic acid]

SMILES	EC50
N#Cc1ccc(COc2cccc([C@@]34CCN(Cc5nc6ccc(C(=O)O)cc6n5C[C@@H]5CCO5)C[C@@H]3C4)n2)c(F)c1 (single isomer, unassigned) [Compound 9-P1]	0.171 nM
O=C(O)c1ccc2nc(CN3CC[C@@]4(c5cccc(OCc6nc7ccccc7s6)n5)C[C@H]4C3)n(C[C@@H]3CCO3)c2c1 (single isomer, unassigned) [Compound 104-P1]	4.91 nM
O=C(O)c1ccc2nc(CN3CC[C@]4(c5cccc(OCc6nc7ccccc7s6)n5)C[C@@H]4C3)n(C[C@@H]3CCO3)c2c1 (single isomer, unassigned) [Compound 104-P2]	8.12 nM
CCn1cncc1Cn1c(CN2CC[C@@]3(c4cccc(OCc5ccc(C#N)cc5F)n4)C[C@H]3C2)nc2ccc(C(=O)O)cc21 (single isomer, unassigned) [Compound 121-P1]	0.0329 nM
CCn1cncc1Cn1c(CN2CC[C@]3(c4cccc(OCc5ccc(C#N)cc5F)n4)C[C@@H]3C2)nc2ccc(C(=O)O)cc21 (single isomer, unassigned) [Compound 121-P2]	0.0386 nM
N#Cc1ccc(COc2cccc(C34CCN(Cc5nc6ccc(C(=O)O)cc6n5C[C@@H]5CCO5)CC3C4)n2)c(F)c1 (stereo partly drawn) [Compound 9, 2-((6-(6-((4-cyano-2-fluorobenzyl)oxy)pyridin-2-yl)-3-azabicyclo[4.1.0]heptan-3-yl)methyl)-1-((S)-oxetan-2-ylmethyl)-1H-benzo[d]imidazole-6-carboxylic acid]	0.476 nM
N#Cc1ccc(COc2cccc([C@]34CCN(Cc5nc6ccc(C(=O)O)cc6n5C[C@@H]5CCO5)C[C@H]3C4)n2)c(F)c1 [Compound 9-P2, 2-(((1S,6R)-6-(6-((4-cyano-2-fluorobenzyl)oxy)pyridin-2-yl)-3-azabicyclo[4.1.0]heptan-3-yl)methyl)-1-((S)-oxetan-2-ylmethyl)-1H-benzo[d]imidazole-6-carboxylic acid]	0.494 nM
O=C(O)c1ccc2nc(CN3CCC4(c5cccc(OCc6ccccc6)n5)CC4C3)n(CC3CCO3)c2c1 (stereo not drawn) [Compound 10]	13.9 nM

Same assay, conditions: Table 3; cAMP Hunter CHO-K1 GLP1R Gs cells; percent activity normalized to Exendin-4

EC50	SMILES
> 500 nM	N#Cc1ccc2c(c1)CCC[C@H]2Oc1cccc(C2CCN(Cc3nc4ccc(C(=O)O)cc4n3C[C@@H]3CCO3)CC2)n1 (single isomer, unassigned) [Compound 146-P1]
7.02 nM	N#Cc1ccc2c(c1)CCC[C@@H]2Oc1cccc(C2CCN(Cc3nc4ccc(C(=O)O)cc4n3C[C@@H]3CCO3)CC2)n1 (single isomer, unassigned) [Compound 146-P2]
261 nM	N#Cc1ccc([C@H]2CCc3c(cccc3N3CCN(Cc4nc5ccc(C(=O)O)cc5n4C[C@@H]4CCO4)CC3)O2)c(F)c1 (single isomer, unassigned) [Compound 151-P1]
> 500 nM	N#Cc1ccc([C@@H]2CCc3c(cccc3N3CCN(Cc4nc5ccc(C(=O)O)cc5n4C[C@@H]4CCO4)CC3)O2)c(F)c1 (single isomer, unassigned) [Compound 151-P2]

SMILES	EC50
N#Cc1ccc(COc2ncccc2[C@@]23CCN(Cc4nc5ccc(C(=O)O)cc5n4CC4CCO4)C[C@@H]2C3)c(F)c1 (single isomer, unassigned) [Compound 167, 2-((6-(2-((4-cyano-2-fluorobenzyl)oxy)pyridin-3-yl)-3-azabicyclo[4.1.0]heptan-3-yl)methyl)-1-(oxetan-2-ylmethyl)-1H-benzo[d]imidazole-6-carboxylic acid]	266 nM
